Experimental data as given in patent EP1464336A1, “Use of tryprostatin A for the reversal of cancer drug resistance” (Humboldt-Universität zu Berlin, priority 2003, dated 2004).

Legend:
MCF-7/AdrVp = assay: Mitoxantrone accumulation assay (flow cytometry); type: cell-based, human; conditions: 1 µM GF120918
Protocol: (§1) Cellular mitoxantrone accumulation was determined according to the procedure described in Lage H et al., FEBS Lett 2001;503:179-84. Briefly, 4 x 10^5 cells were seeded out in 6-well plates 78 hours prior to the experiment. Incubation with mitoxantrone (0, 1,5 and 10 µg/ml) was performed for 60 minutes at 37°C and 70-80 % cellular confluence. For kinetics of intracellular enrichment of mitoxantrone, cells were exposed to 10 µg/ml mitoxantrone for 0, 5, 10 and 60 min. Cells were washed with ice-cold PBS, trypsinized and resuspended in 4 °C PBS at a concentration of 4 x 10^5 cells/ml. Intracellular fluorescence of mitoxantrone was determined by flow cytometry (Becton-Dickinson, San Jose, CA). The cells were excited at 480 nm and emission was measured at 630 nm. A minimum of 10^4 cells was analyzed for each sample. All assays were performed at least in three independent experiments, each time with triplicate wells.
(§2) To provide confirmation that the observed resensitization to mitoxantrone of BCRP-overexpressing cells was indeed the result of BCRP inhibition by TPS-A, a mitoxantrone accumulation assay was performed. The known so-called "multispecific" MDR modulator GF120918, inhibiting P-gp- and BCRP activity, was used as a positive control for P-gp- and BCRP antagonism.

[1] = system: BCRP-transfected cell variant MCF-7/BCRP clone 8; assay: Mitoxantrone accumulation assay (flow cytometry); type: cell-based, human; conditions: 1 µM GF120918; compared to drug accumulation level in the untreated, parental control cell line (Fig 4B)
Protocol: as §1, §2

[2] = system: drug-sensitive, parental cell line MCF-7; assay: Mitoxantrone accumulation assay (flow cytometry); type: cell-based, human; conditions: increasing modulator concentrations
Protocol: as §1, §2

[3] = system: parental, drug-sensitive gastric carcinoma cell variant EPG85-257P; assay: Mitoxantrone accumulation assay (flow cytometry); type: cell-based, human; conditions: GF120918 (Fig 4)
Protocol: as §1, §2

BCRP = assay: Mitoxantrone accumulation assay (flow cytometry); type: cell-based, human; conditions: human, probe mitoxantrone; 1 µM GF120918 (Fig 4); read-out: mitoxantrone accumulation inhibiting effect
Protocol: as §1, §2

P-gp [4] = assay: Mitoxantrone accumulation assay (flow cytometry); type: cell-based, human; conditions: human, EPG85-257RDB cells (P-gp-expressing, classical MDR variant), probe mitoxantrone; 1 µM GF120918 (Fig 4); read-out: inhibition of mitoxantrone pump activity
Protocol: as §1, §2

[5] = system: drug-sensitive and drug-resistant gastric and breast cancer cell lines; assay: Cytotoxicity of the MDR modulators alone (SRB proliferation assay); type: cell-based, human
Protocol: (§3) Modulation of chemoresistance was tested using a proliferation assay based on sulforhodamine B (SRB), a protein-binding reagent (Skehan P et al., J Natl Cancer Inst 1990;82:1107-12), as described in Lage H et al., Int J Hyperthermia 2000;16:291-303; Lage H et al., FEBS Lett 2001;503:179-84; Lage H et al., FEBS Lett 2001;494:54-9. In each experiment, 350 cells per well were seeded in the presence or absence of TPS-A in 96-well plates in complete medium and allowed to attach overnight. Mitoxantrone or daunorubicin were added in a dilution series in triplicate wells. After 5 days, when unselected wells were still subconfluent, incubation was terminated by replacing the medium with 10 % trichloroacetic acid, followed by incubation at 4 °C for 1 h. After samples were washed 5 times with water and air-dried, 50 µl 0.4 % SRB (Sigma, St. Louis, MO) in 1 % acetic acid was added and samples were incubated for 10 min at room temperature. Unbound dye was eliminated by washing the plates 5 times with 1 % acetic acid. After air-drying and re-solubilisation of the protein-bound dye in 10 mM Tris-HCl (pH 8.0), absorbance was quantified at 562.5 nm. To determine the IC50-value, the absorbance difference of control cells without drug was set to be 100 %. Linear regression of data was done for the linear part of the curve, and IC50-values were calculated from multiple, at least three independent experiments for each cell line.
The cytotoxicity of the MDR modulators TPS-A and GF120918 on drug-sensitive and drug-resistant gastric and breast cancer cell lines was initially assessed.

P-gp [6] = biological target: P-gp (Homo sapiens, UniProt P08183); conditions: literature (Hyafil F et al., Cancer Res 1993); cited from earlier work
[7] = system: gastric and breast carcinoma cell variants; assay: Modulation of chemoresistance to mitoxantrone or daunorubicin (SRB proliferation assay, IC50/DMF); type: cell-based, human
Protocol: as §3
The cellular sensitivity to mitoxantrone and daunorubicin was assessed by determining the IC50 values without or with increasing concentrations of TPS-A or GF120918 as a positive control in the different cancer cell variants. Table 1 presents the data of TPS-A reversal of mitoxantrone and daunorubicin resistance in different gastric and breast carcinoma cell variants, respectively. […] In each case, the equation DMF=(IC50 (-CS))/(IC50 (+CS)) [formula] was used to calculate the dose modifying factor (DMF), comparing the IC50 values in the presence (+CS) or absence (-CS) of the corresponding chemosensitizer (CS) TPS-A or GF120918.

EPG85-257RDB cells = assay: Modulation of chemoresistance to daunorubicin (SRB proliferation assay, IC50/DMF); type: cell-based, human; conditions: GF120918; classical MDR, P-gp-expressing cells (Table 2, Figure 3B)
Protocol: as §3, with “After samples were washed 5 times with water and air-dried, 50 µl 0.4 % SRB (Sigma, St. Louis, MO) in 1 % acetic acid was added and samples were incubated for 10 min at room temperature. Unbound dye was eliminated by washing the plates 5 times with 1 % acetic acid.” left out, “To determine the IC50-value, the absorbance difference of control cells without drug was set to be 100 %.” left out
The cellular sensitivity to mitoxantrone and daunorubicin was assessed by determining the IC50 values without or with increasing concentrations of TPS-A or GF120918 as a positive control in the different cancer cell variants. […]

[8] = system: MDR1 Pgp overexpressing subline (EPG85-257RDB); assay: C6-NBD-PS outward translocation assay; type: cell-based, human; conditions: 10 µM inhibitor; 30 minutes at 37°C (Fig. 8)
Protocol: (§4) To measure redistribution of C6-NBD-PS from the cytoplasmic to the exoplasmic leaflet, labelling of the cytoplasmic leaflet is preconditional. Previously, we have introduced a method to achieve efficient labeling of the plasma membrane inner leaflet of the gastric carcinoma cell line EPG85-257 (Pohl, A., Lage, H., Müller, P., Pomorksi, T., and Herrmann. A. (2002) Biochem. J. 365, 259-268). Briefly, cells were preincubated with or without MDR inhibitors, labelled with 5 µM C6-NBD-PS, and incubated at 20°C for 30 minutes to allow inward movement of the NBD analogue. C6-NBD-PS remaining on the cell surface was extracted twice by incubation with 2% (w/v) BSA in mPBS for 10 minutes on ice. Before starting the outward translocation assay, the medium was removed, and cells were washed with ice-cold mPBS. For t=0', ice-cold medium containing 2% (w/v) BSA and 5 mM DFP ( = diisopropyl fluoro-phosphate) in mPBS with or without inhibitor was immediately added to the cell dish for 10 minutes. To measure C6-NBD-PS outward translocation, medium prewarmed to 37°C was added to the dish, and cells were incubated at 37°C for 30 minutes (t = 30'). Removal of the BSA-containing media and a second extraction with 2% BSA in mPBS for 10 minutes terminated incubations, followed by lipid analysis.
(§5) After the incubations, the second BSA back exchange medium was pooled with the first, and cells scraped into mPBS. For analysis of outward translocation and of metabolic conversion of C6-NBD-PS, lipids from both scraped cells and media were extracted with isopropanol/chloroform/(5.5:1, v/v) to prevent substantial loss into the aqueous phase. Samples were centrifuged at 780 g for 5 minutes, the supernatant transferred into new glass tubes and dried, dissolved in chloroform/methanol (1:1) and quantified spectroscopically. For C6-NBD-PC analysis, lipids from both cells and incubation media were extracted by the method of Bligh and Dyer (Bligh, E., and Dyer, W. (1959) Can. J Biochem. Physiol. 37, 911-917) using 20 mM acetic acid in the aqueous phase. After 2-D separation [I, chloroform/methanol/25% ammonium hydroxide (65:25:4, v/v); II, chloroform/acetone/methanol/acetic acid/water (10:4:2:2:1, v/v)] on thin layer chromatography plates, fluorescent lipid spots were visualized under ultraviolet light, scraped, and quantified as described before (Pomorski, T., Müller, P., Zimmermann, B., Burger, K., Devaux, P., and Herrmann, A. (1996) J. Cell Sci. 109, 687-698).

[9] = system: control cells (EPG85-257P); assay: C6-NBD-PS outward translocation assay; type: cell-based, human; conditions: 10 µM inhibitor; 30 minutes at 37°C (Fig. 8)
Protocol: as §4, §5

[10] = system: BCRP overexpressing cells (EPG85-257RNOV); assay: C6-NBD-PS outward translocation assay; type: cell-based, human; conditions: pretreatment with 10 µM inhibitor; 30 minutes at 37°C (Fig. 8)
Protocol: as §4, §5

Chain of P-gp (Homo sapiens, UniProt P08183) (P08183 whole entry): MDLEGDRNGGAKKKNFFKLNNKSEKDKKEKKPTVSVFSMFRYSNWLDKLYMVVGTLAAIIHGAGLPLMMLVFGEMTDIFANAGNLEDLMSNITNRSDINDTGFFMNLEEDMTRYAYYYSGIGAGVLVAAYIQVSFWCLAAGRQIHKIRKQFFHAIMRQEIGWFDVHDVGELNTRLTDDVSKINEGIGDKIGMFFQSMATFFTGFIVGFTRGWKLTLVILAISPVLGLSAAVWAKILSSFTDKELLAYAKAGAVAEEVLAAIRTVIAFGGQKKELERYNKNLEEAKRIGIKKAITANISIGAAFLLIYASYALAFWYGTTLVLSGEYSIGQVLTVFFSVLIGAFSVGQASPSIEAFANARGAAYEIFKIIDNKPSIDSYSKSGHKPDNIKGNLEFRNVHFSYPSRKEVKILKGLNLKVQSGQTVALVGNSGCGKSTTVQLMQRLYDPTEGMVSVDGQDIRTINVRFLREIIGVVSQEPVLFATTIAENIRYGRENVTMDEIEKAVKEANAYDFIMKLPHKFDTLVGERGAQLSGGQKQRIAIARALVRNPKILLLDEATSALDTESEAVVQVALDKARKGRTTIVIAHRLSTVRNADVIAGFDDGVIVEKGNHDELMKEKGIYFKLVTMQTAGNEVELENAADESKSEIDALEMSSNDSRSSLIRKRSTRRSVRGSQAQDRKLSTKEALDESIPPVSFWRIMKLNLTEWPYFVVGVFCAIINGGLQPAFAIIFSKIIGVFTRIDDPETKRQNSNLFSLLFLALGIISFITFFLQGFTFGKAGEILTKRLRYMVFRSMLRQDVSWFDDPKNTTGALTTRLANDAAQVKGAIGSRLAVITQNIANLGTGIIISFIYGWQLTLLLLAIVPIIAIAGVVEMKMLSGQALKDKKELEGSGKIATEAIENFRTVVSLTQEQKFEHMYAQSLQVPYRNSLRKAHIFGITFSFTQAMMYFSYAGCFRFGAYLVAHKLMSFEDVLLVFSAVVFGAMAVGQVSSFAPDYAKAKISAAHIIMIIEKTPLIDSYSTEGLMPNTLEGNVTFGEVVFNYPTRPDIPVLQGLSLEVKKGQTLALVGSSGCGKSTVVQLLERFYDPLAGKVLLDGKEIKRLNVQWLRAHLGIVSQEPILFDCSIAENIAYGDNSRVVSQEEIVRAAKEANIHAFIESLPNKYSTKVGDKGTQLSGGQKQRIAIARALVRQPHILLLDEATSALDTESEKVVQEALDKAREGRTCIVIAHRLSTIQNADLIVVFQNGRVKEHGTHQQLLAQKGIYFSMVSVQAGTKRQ

**Q.** Which “increase of drug accumulation with respect to control cells” value (MCF-7/AdrVp) does the source give for `COc1cc2c(cc1OC)CN(CCc1ccc(NC(=O)c3cccc4c(=O)c5cccc(OC)c5[nH]c34)cc1)CC2` [GF120918, reference compound] here?
**A.** 40%

**Q.** What about the “inhibition of the mitoxantrone pump activity” value [1] of the same compound?
**A.** completely

**Q.** And the “effect on drug accumulation” value [2]?
**A.** only a weak dosage-depending effect

**Q.** And the “transporter inhibiting effect (mitoxantrone accumulation)” value [3]?
**A.** very weak transporter inhibiting effect

**Q.** What about the inhibition at 1 µM (BCRP) of the same compound?
**A.** 80%

**Q.** What about the inhibition at 1 µM (P-gp [4]) of the same compound?
**A.** 75%

**Q.** What about the growth inhibitory effect ([5]; 1 µM GF120918 alone, any of the drug-sensitive or drug-resistant cancer cell lines tested) of the same compound?
**A.** no growth inhibitory effect

**Q.** And the “cross-resistance to the MDR modulator” value ([5]; multidrug-resistant tumor cell lines)?
**A.** No evidence of cross-resistance

**Q.** What about the “concentration capable of restoring drug sensitivity (as low as)” value (P-gp [6]) of the same compound?
**A.** 100 nM

**Q.** What about the “restoration of drug sensitivity (mitoxantrone resistance)” value ([7]; 1 µM GF120918, EPG85-257RNOV and EPG85-257RDB, same for MCF7/BCRP clone 8 and MCF-7/AdrVp) of the same compound?
**A.** not sufficient to restore drug sensitivity completely

**Q.** What about the resensitization to mitoxantrone ([7]; GF120918, BCRP- and P-gp-expressing stomach and mamma carcinoma-derived cell lines (Table 2, Figure 3A)) of the same compound?
**A.** dose-depending resensitization

**Q.** And the “effect on sensitivity to daunorubicin” value ([7]; GF120918, the other human gastric and breast cancer cell lines (not EPG85-257RDB))?
**A.** no significant effect

**Q.** What about the sensitization to daunorubicin (EPG85-257RDB cells) of the same compound?
**A.** considerable dose-depending sensitization

**Q.** And the “PS analogue outward translocation (MDR1 Pgp lipid transport activity)” value [8]?
**A.** significant reduction

**Q.** And the “PS transport (C6-NBD-PS outward translocation)” value [9]?
**A.** did not affect PS transport significantly

**Q.** And the “amount of C6-NBD-PS in the BSA containing medium (outward translocation)” value [10]?
**A.** sharp and highly significant decrease
